Laboratory results reported in patent publication US20240207237A1, “METHOD OF SCREENING FOR DRUG COMBINATION FOR COLORECTAL CARCINOMA TREATMENT, DRUG COMBINATION AND USE THEREOF” (National Tsing Hua University, priority 2022, published 2024).

test system: HCT116 cell lines; assay: IC50 and cell viability assay of clinical drugs (CCK-8); format: cell-based, human; conditions: CCK-8, absorbance 450 nm, triplicate, mean ± SD, Resistance = drug does not affect cell viability
Protocol: All the mediums were purchased from […].
To determine suitable cell seeding number for each cell line, different number (300, 500, 1000, 3000) of cells/wells were seeded in a 96-well plate. A cell viability was determined using a real-time viability assay (RealTime-Glo™ Assay Reagent). Luminescence intensities were measured at different time points (4, 8, 16, 24, 36, 48, 60 and 72 hours) to evaluate a cell growth curve. To establish IC50 values of ten drugs on each cell line, gradient concentrations of each drug were prepared. […] The cell viability was measured with Cell Counting Kit 8 (e.g., CCK-8 purchased from Dojindo molecular technologies, Japan), and cell viability assay was performed after 2 hours of incubation by measuring the absorbances at 450 nm. Relative cell numbers were determined as compared with the control cells. All experiments were performed in triplicate manner, and data were represented as expressed as mean±standard deviation (mean±SD).

| Molecule | IC50 (μM) ± SD | IC50 |
| --- | --- | --- |
| Bevacizumab [Bevacizumab (B)] | Resistance | – |
| Panitumumab [Panitumumab (P)] | Resistance | – |
| O=C1[O][Pt]2([NH][C@@H]3CCCC[C@H]3[NH]2)[O]C1=O [Oxaliplatin (O), Oxaliplatin] | – | 10.3 ± 3.27 µM |
| Nc1nc(=O)c2c([nH]1)NCC(CNc1ccc(C(=O)N[C@@H](CCC(=O)O)C(=O)O)cc1)N2C=O (mixture of isomers) [Folinic acid (F), Folinic acid] | Resistance | – |

same assay, conditions: Homo sapiens, HCT-116, CCK-8, absorbance 450 nm, triplicate, mean ± SD, Resistance = drug does not affect cell viability

| Molecule | IC50 |
| --- | --- |
| COc1cc2nccc(Oc3ccc(NC(=O)NC4CC4)c(Cl)c3)c2cc1C(N)=O [Lenvatinib (L), Lenvatinib] | 28.5 ± 0.802 µM |
| CNC(=O)c1cc(Oc2ccc(NC(=O)Nc3ccc(Cl)c(C(F)(F)F)c3)c(F)c2)ccn1 [Regorafenib (R), Regorafenib] | 5.89 ± 0.713 µM |
| O=c1[nH]cc(F)c(=O)[nH]1 [5-FU (U), 5-Fluorouracil] | 8.56 ± 0.897 µM |
| Nc1ccn([C@@H]2O[C@H](CO)[C@@H](O)C2(F)F)c(=O)n1 [Gemcitabine (G), Gemcitabine] | 0.183 µM |
| CCc1c2c(nc3ccc(OC(=O)N4CCC(N5CCCCC5)CC4)cc13)-c1cc3c(c(=O)n1C2)COC(=O)[C@]3(O)CC [Irinotecan (I), Irinotecan] | 0.01 ± 0.03 µM |
